Experimental data from ChEMBL document CHEMBL1201862, “PubChem BioAssay data set” (2004).
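Step 1: Grow cells in 96-well plates. Step 2: Expose to compound for 48 hours at 5 concentrations. Step 3: Interpolate endpoints linearly; if unreached, use highest concentration. GI50: concentration for 50% inhibition of growth.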 Calls of active or inactive are those of the source. Cut-off read from the data, not from the text of the source: active = GI50 up to about 1.1 µM and inactive = higher.

Tests used:
Experiment in all cases: NCI anticancer screen, dose series, 48 h
BT-549 = test system: BT-549
CCRF-CEM = test system: CCRF-CEM
HCT-15 = test system: HCT-15
HOP-62 = test system: HOP-62
HOP-92 = test system: HOP-92
HT-29 = test system: HT-29
K562 = test system: K562
M14 = test system: M14
MDA-N = test system: MDA-N
NCI-H460 = test system: NCI-H460
NCI/ADR-RES = test system: NCI/ADR-RES
OVCAR-3 = test system: OVCAR-3
OVCAR-8 = test system: OVCAR-8
RXF 393 = test system: RXF 393
SF-268 = test system: SF-268
SF-539 = test system: SF-539
SK-MEL-28 = test system: SK-MEL-28
SK-OV-3 = test system: SK-OV-3
SN12C = test system: SN12C
T47D = test system: T47D

Row | Compound | GI50 (BT-549) | GI50 (CCRF-CEM) | GI50 (HCT-15) | GI50 (HOP-62) | GI50 (HOP-92) | GI50 (HT-29) | GI50 (K562) | GI50 (M14) | GI50 (MDA-N) | GI50 (NCI-H460) | GI50 (NCI/ADR-RES) | GI50 (OVCAR-3) | GI50 (OVCAR-8) | GI50 (RXF 393) | GI50 (SF-268) | GI50 (SF-539) | GI50 (SK-MEL-28) | GI50 (SK-OV-3) | GI50 (SN12C) | GI50 (T47D)
1 | Cc1cc(C)c2c(O)c(S(=O)(=O)c3ccc(Cl)cc3)c(=O)oc2c1 | 67.9 µM (inactive) | 42.5 µM (inactive) | 49.7 µM | 61.8 µM (inactive) | 65.6 µM (inactive) | 95.3 µM (inactive) | 55.6 µM (inactive) | 34.3 µM (inactive) | 79.1 µM (inactive) | 52.2 µM (inactive) | 26.2 µM (inactive) | 40 µM (inactive) | 29.2 µM (inactive) | > 100 µM (inactive) | 40.2 µM (inactive) | > 100 µM (inactive) | 51.9 µM (inactive) | 70.8 µM (inactive) | 65.3 µM (inactive) | 99.8 µM (inactive)
2 | CC(C)(C)OC(=O)N1CCc2c(n(C/C=C/c3ccccc3)[nH]c2=O)C1 | > 100 µM (inactive) | 72.3 µM (inactive) | > 100 µM | > 80.7 µM (inactive) | > 53.5 µM (inactive) | > 100 µM (inactive) | 46.6 µM (inactive) | > 100 µM (inactive) | > 100 µM (inactive) | > 100 µM (inactive) | 26.2 µM (inactive) | > 100 µM (inactive) | > 100 µM (inactive) | > 100 µM (inactive) | > 100 µM (inactive) | > 100 µM (inactive) | > 100 µM (inactive) | > 100 µM (inactive) | > 100 µM (inactive) | 46.7 µM (inactive)
3 | COC(=O)c1ccc2n1C1CC3CC(CC2C3)C1 | > 100 µM (inactive) | > 100 µM (inactive) | > 100 µM | > 100 µM (inactive) | 24.8 µM (inactive) | 31.5 µM (inactive) | 51.2 µM (inactive) | > 100 µM (inactive) | > 100 µM (inactive) | > 100 µM (inactive) | > 100 µM (inactive) | > 100 µM (inactive) | > 100 µM (inactive) | 21.5 µM (inactive) | > 100 µM (inactive) | > 100 µM (inactive) | > 100 µM (inactive) | > 100 µM (inactive) | > 100 µM (inactive) | 53.6 µM (inactive)
4 | Cc1c(C#N)c2nnn(-c3ccc([N+](=O)[O-])cc3)c(=O)n2c1-c1ccccc1 | 14.6 µM (inactive) | 5.98 µM (inactive) | 6.15 µM | 7.29 µM (inactive) | 8.05 µM (inactive) | 8.53 µM (inactive) | 3.37 µM (inactive) | 11.4 µM (inactive) | 10.2 µM (inactive) | 5.86 µM (inactive) | 4.86 µM (inactive) | 3.03 µM (inactive) | 10.7 µM (inactive) | 16.5 µM (inactive) | 14.7 µM (inactive) | 14.6 µM (inactive) | 19.2 µM (inactive) | 24.3 µM (inactive) | 11.5 µM (inactive) | 3.49 µM (inactive)
5 | COc1cc(/C=C2\CC3C4CC[C@H]5C[C@@H](O)CC[C@]5(C)C4CC[C@]3(C)\C2=N\O)cc(OC)c1OC (stereo not given in full) | 14.9 µM (inactive) | 6.47 µM (inactive) | 9.48 µM | 12 µM (inactive) | 15.2 µM (inactive) | 7.36 µM (inactive) | 4.66 µM (inactive) | 14.4 µM (inactive) | 14.8 µM (inactive) | 8.05 µM (inactive) | 12.9 µM (inactive) | 3.27 µM (inactive) | 17.3 µM (inactive) | 7.74 µM (inactive) | 24 µM (inactive) | 10.8 µM (inactive) | 14.7 µM (inactive) | 19.2 µM (inactive) | 13.7 µM (inactive) | 4.73 µM (inactive)
